Measured values published in patent US11453697B1, “Cyclic di-nucleotide compounds as sting agonists” (Merck Sharp & Dohme Corp., priority 2015, dated 2022).

Key:
[1] = system: IFN-β secretion in THP1 cells; experiment: IFN-β secretion in THP1 cell culture (5 h); type: cell-based, human; settings: IFN-β secretion in THP1 cell culture, 5 h; compound at 30 μM; percent activation relative to 2′3′-cGAMP
How it was run: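 THP1 cells incubated with compound for 5 h at 37 °C, 5% CO2, and secreted IFN-β in supernatant quantified by AlphaLISA. Percent effect normalised to 30 uM cGAMP positive control and 0.3% DMSO. EC50 from 4-parameter fit.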

[2] = target: full-length HAQ STING (Homo sapiens (Human), UniProt Q86WV6, G230A/H232R/R293Q/R71H); experiment: 3H-cGAMP filtration binding assay (HAQ STING); settings: competition with tritiated cGAMP, HAQ STING membrane; read-out: EC50 (nM), 3H-cGAMP filtration binding assay for HAQ STING
full-length HAQ STING, sequence (Q86WV6 other isoform, or with tags, fused parts or gaps, stated change not applied): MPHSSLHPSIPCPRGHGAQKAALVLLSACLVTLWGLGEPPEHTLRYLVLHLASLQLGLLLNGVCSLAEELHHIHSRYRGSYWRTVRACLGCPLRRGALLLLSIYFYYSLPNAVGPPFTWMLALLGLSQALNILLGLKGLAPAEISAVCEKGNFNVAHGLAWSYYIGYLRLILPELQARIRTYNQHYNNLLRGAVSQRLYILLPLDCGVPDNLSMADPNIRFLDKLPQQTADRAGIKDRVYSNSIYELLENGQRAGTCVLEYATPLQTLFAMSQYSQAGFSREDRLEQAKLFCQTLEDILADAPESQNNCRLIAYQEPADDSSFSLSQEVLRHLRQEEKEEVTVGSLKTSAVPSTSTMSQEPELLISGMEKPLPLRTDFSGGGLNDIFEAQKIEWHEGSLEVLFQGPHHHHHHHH
How it was run: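 Competition binding of compounds against 8 nM [3H]cGAMP working stock on Hi-Five cell membranes overexpressing full-length HAQ STING; compound and membrane preincubated 60 min at RT before ligand addition. Bound radioactivity read by filtration and scintillation counting; percent activity normalized to controls, EC50 from 4-parameter fit.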

EC50 [2]	SMILES	% Effect at 30 μM relative to 2′3′-cGAMP [1]
2.6 nM	Nc1ncnc2c1ncn2[C@@H]1O[C@@H]2COP(=O)(O)O[C@H]3[C@@H](F)[C@H](n4cnc5c(=O)[nH]cnc54)O[C@@H]3COP(=O)(O)O[C@@H]1[C@@H]2O [Example 292, 9-[(5R,7R,8R,12aR,14R,15R,15aR,16R)-7-(6-amino-9H-purin-9-yl)-15-fluoro-2,10,16-trihydroxy-2,10-dioxidooctahydro-12H-5,8-methanofuro[3,2-l][1,3,6,9,11,2,10]pentaoxadiphosphacyclotetradecin-14-yl]-1,9-dihydro-6H-purin-6-one]	114%
834 nM	Nc1nc2c(ncn2[C@@H]2O[C@@H]3COP(=O)(O)O[C@H]4[C@@H](O)[C@H](n5nnc6c(N)nccc65)O[C@@H]4COP(=O)(O)O[C@@H]2[C@@H]3O)c(=O)[nH]1 [Example 73, 2-amino-9-[(5R,7R,8R,12aR,14R,15R,15aS,16R)-14-(4-amino-1H-[1,2,3]triazolo[4,5-c]pyridin-1-yl)-2,10,15,16-tetrahydroxy-2,10-dioxidooctahydro-12H-5,8-methanofuro[3,2-l][1,3,6,9,11,2,10]pentaoxadiphosphacyclotetradecin-7-yl]-1,9-dihydro-6H-purin-6-one]	5%
< 1 nM	Nc1nc2c(ncn2[C@@H]2O[C@@H]3COP(=O)(O)O[C@H]4[C@@H](F)[C@H](n5cnc6c(=O)[nH]cnc65)O[C@@H]4COP(=O)(O)O[C@@H]2[C@@H]3F)c(=O)[nH]1 [Example 314, 2-amino-9-[(5R,7R,8S,12aR,14R,15R,15aR,16R)-15,16-difluoro-2,10-dihydroxy-2,10-dioxido-14-(6-oxo-1,6-dihydro-9H-purin-9-yl)octahydro-12H-5,8-methanofuro [3,2-l][1,3,6,9,11,2,10]pentaoxadiphosphacyclotetradecin-7-yl]-1,9-dihydro-6H-purin-6-one]	143%

The remaining lines, values behind:

SMILES	EC50 [2]	% Effect at 30 μM relative to 2′3′-cGAMP [1]
CNc1ncnc2c1ncn2[C@@H]1O[C@@H]2COP(=O)(O)O[C@@H]3[C@H](O)[C@@H](COP(=O)(O)O[C@H]2[C@H]1O)O[C@H]3n1cnc2c(=O)[nH]c(N)nc21 [Example 31, 2-amino-9-{(5R,7R,8R,12aR,14R,15R,15aS,16R)-2,10,15,16-tetrahydroxy-14-[6-(methylamino)-9H-purin-9-yl]-2,10-dioxidooctahydro-12H-5,8-methanofuro [3,2-l][1,3,6,9,11,2,10]pentaoxadiphosphacyclotetradecin-7-yl}-1,9-dihydro-6H-purin-6-one]	94 nM	100%
Nc1nc2c(ncn2[C@@H]2O[C@@H]3COP(=O)(O)O[C@H]4[C@@H](O)[C@H](c5cnc6c(N)ncnn56)O[C@@H]4COP(=O)(O)O[C@@H]2[C@@H]3O)c(=O)[nH]1 [Example 40, 2-amino-9-[(5R,7R,8R,12aR,14S,15S,15aS,16R)-14-(4-aminoimidazo[2,1-f][1,2,4]triazin-7-yl)-2,10,15,16-tetrahydroxy-2,10-dioxidooctahydro-12H-5,8-methanofuro[3,2-l][1,3,6,9,11,2,10]pentaoxadiphosphacyclotetradecin-7-yl]-1,9-dihydro-6H-purin-6-one]	3.2 nM	77%
Nc1nc2c(ncn2[C@@H]2O[C@@H]3COP(=O)(O)O[C@H]4[C@@H](O)[C@H](n5cc(F)c6c(N)ncnc65)O[C@@H]4COP(=O)(O)O[C@@H]2[C@@H]3O)c(=O)[nH]1 [Example 33, 2-amino-9-[(5R,7R,8R,12aR,14R,15R,15aS,16R)-14-(4-amino-5-fluoro-7H-pyrrolo[2,3-d]pyrimidin-7-yl)-2,10,15,16-tetrahydroxy-2,10-dioxidooctahydro-12H-5,8-methanofuro[3,2-l][1,3,6,9,11,2,10]pentaoxadiphosphacyclotetradecin-7-yl]-1,9-dihydro-6H-purin-6-one]	11.9 nM	200%
